# Counter-ions that a name gives are not always drawn.
# Target: β-catenin/BCL9 PPI (Homo sapiens (Human), UniProt P35222)
# Assay: AlphaScreen competitive inhibition assay of β-catenin/BCL9 PPI
# Format: binding
# Conditions: mean ± standard deviation (n = 3); for Ki: derived from IC50, read-out: Ki ± SD
# Procedure: AlphaScreen Assays of β-Catenin and BCL9 Interaction. Experiments were performed in white opaque 384-well plates from PerkinElmer (Waltham, MA), and the samples were read on a Biotek Synergy 2 plate reader (Winooski, VT) with excitation at 680 nm and emission at 570 nm. The standard AlphaScreen protocol was used with a sensitivity setting of 200. All dilutions were made in 1× assay buffer containing 25 mM Hepes (pH 7.4), 100 mM NaCl, 0.01% Triton X-100 and 0.1% BSA to minimize nonspecific interactions. For the competitive inhibition assays of β-catenin/BCL9 PPI, the negative control (equivalent to 0% inhibition) refers to 5.0 nM biotinylated BCL9, 50 nM His6-tagged β-catenin, and 10 μg/mL donor and acceptor beads in a final volume of 25 μL assay buffer, but no tested inhibitor present. The positive control (equivalent to 100% inhibition) refers to 5.0 nM biotinylated BCL9 and 10 μg/mL donor and acceptor beads in a final volume of 25 μL assay buffer.
# For the β-catenin/BCL9 assay, 5 nM biotinylated BCL9 and 50 nM His6-tagged β-catenin were incubated in assay buffer for 30 min. Different concentrations of the tested inhibitor were added and incubated in 20 μL assay buffer for another 1 h. All of the assay plates were covered and gently mixed on an orbital shaker. The donor and acceptor beads were then added to the plates to a final concentration of 10 μg/mL in 25 μL assay buffer. The mixture was incubated for 1 h before detection. The IC50 value was determined by nonlinear least-square analysis of GraphPad Prism 8.0. The Ki values were derived from the IC50 values using a method reported by Wang and coworkers.^65 The equation used is Ki=[I]50/([L]50/Kd+[P]0/Kd+1) (Where [I]50 denotes the concentration of the free inhibitor at 50% inhibition, [L]50 is the concentration of the free labeled ligand at 50% inhibition, [P]0 is the concentration of the free protein at 0% inhibition, and Kd is the dissociation constant of the protein-ligand complex). All of the experiments were performed in triplicate and carried out in the presence of 1% DMSO for small-molecule inhibitors. Each compound was assayed at least by three independent experiments. The results were expressed as mean±standard deviation.
# Sequence of β-catenin/BCL9 PPI (P35222 whole entry): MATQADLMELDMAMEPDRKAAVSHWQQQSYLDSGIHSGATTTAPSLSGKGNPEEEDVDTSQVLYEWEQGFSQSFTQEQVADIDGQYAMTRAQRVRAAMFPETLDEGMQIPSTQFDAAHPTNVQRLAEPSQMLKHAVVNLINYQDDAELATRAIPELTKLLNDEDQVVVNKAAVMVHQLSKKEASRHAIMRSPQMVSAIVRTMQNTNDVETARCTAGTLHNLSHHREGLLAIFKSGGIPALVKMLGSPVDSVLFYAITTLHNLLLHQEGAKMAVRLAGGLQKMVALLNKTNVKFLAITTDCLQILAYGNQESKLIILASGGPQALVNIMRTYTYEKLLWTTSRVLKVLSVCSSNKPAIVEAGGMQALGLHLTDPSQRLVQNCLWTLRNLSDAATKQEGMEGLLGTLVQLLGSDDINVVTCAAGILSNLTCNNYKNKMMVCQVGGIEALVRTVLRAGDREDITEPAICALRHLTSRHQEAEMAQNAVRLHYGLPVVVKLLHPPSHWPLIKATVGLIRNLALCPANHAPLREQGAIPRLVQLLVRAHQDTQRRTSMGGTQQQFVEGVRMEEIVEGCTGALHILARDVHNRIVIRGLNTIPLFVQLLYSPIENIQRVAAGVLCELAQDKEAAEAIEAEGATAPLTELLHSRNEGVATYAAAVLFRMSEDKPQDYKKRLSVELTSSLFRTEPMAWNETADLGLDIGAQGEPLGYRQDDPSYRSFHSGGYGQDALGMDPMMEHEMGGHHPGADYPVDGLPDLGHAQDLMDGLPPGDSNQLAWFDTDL
SMILES,Ki [µM],IC50 [µM]
"O=C(c1ccc(O[C@H]2CCNC2)c(C2CCC(C(F)(F)F)CC2)c1)N1CCC(Oc2cc(F)cc(N3CCNCC3)c2)CC1 (stereo in doubt) [Compound 18, cis- and trans-(S)-(4-(3-fluoro-5-(piperazin-1-yl)phenoxy)piperidin-1-yl)(4-(pyrrolidin-3-yloxy)-3-(4-(trifluoromethyl)cyclohexyl)phenyl)methanone dihydrochloride]",≤ 20,≤ 20
"O=C(c1ccc(O[C@H]2CCNC2)c(C2CCOCC2)c1)N1CCC(Oc2cc(F)cc(N3CCNCC3)c2)CC1 [Compound 20, (S)-(4-(3-fluoro-5-(piperazin-1-yl)phenoxy)piperidin-1-yl)(4-(pyrrolidin-3-yloxy)-3-(tetrahydro-2H-pyran-4-yl)phenyl)methanone dihydrochloride]",~84,~100
"O=C(c1ccc(O[C@H]2CCNC2)c(N2CCCCC2)c1)N1CCC(Oc2cc(F)cc(N3CCNCC3)c2)CC1 [Compound 25, (S)-(4-(3-fluoro-5-(piperazin-1-yl)phenoxy)piperidin-1-yl)(3-(piperidin-1-yl)-4-(pyrrolidin-3-yloxy)phenyl)methanone dihydrochloride]",≤ 60,≤ 60
"CC(C)(C)C1CCC(c2cc(C(=O)N3CCC(Oc4cc(N5CCNCC5)ccc4F)CC3)ccc2O[C@H]2CCNC2)CC1 (stereo in doubt) [Compound 34, cis- and trans-(S)-(3-(4-(tert-butyl)cyclohexyl)-4-(pyrrolidin-3-yloxy)phenyl)(4-(2-fluoro-5-(piperazin-1-yl)phenoxy)piperidin-1-yl)methanone dihydrochloride]",≤ 10,≤ 10
"O=C(c1ccc(O[C@@H]2CCNC2)c(C2CCCCC2)c1)N1CCC(Oc2cc(F)cc(N3CCNCC3)c2)CC1 [Compound 7, (R)-(3-cyclohexyl-4-(pyrrolidin-3-yloxy)phenyl)(4-(3-fluoro-5-(piperazin-1-yl)phenoxy)piperidin-1-yl)methanone dihydrochloride]",≤ 60,≤ 70
"CC(C)(C)C1CCC(c2cc(C(=O)N3CCC(Oc4ccc(F)c(N5CCNCC5)c4)CC3)ccc2O[C@H]2CCNC2)CC1 (stereo in doubt) [Compound 33, cis- and trans-(S)-(3-(4-(tert-butyl)cyclohexyl)-4-(pyrrolidin-3-yloxy)phenyl)(4-(4-fluoro-3-(piperazin-1-yl)phenoxy)piperidin-1-yl)methanone dihydrochloride]",≤ 10,≤ 10
"CC(C)(C)C1CCC(c2cc(C(=O)N3CCC(Oc4cc(N5CCNCC5)ccc4C#N)CC3)ccc2O[C@H]2CCNC2)CC1 (stereo in doubt) [Compound 37, cis- and trans-(S)-2-((1-(3-(4-(tert-butyl)cyclohexyl)-4-(pyrrolidin-3-yloxy)benzoyl)piperidin-4-yl)oxy)-4-(piperazin-1-yl)benzonitrile dihydrochloride]",≤ 2,≤ 2
"O=C(c1ccc(OC2CCNCC2)c(C2CCCCC2)c1)N1CCC(Oc2cc(F)cc(N3CCNCC3)c2)CC1 [Compound 6, (3-cyclohexyl-4-(piperidin-4-yloxy)phenyl)(4-(3-fluoro-5-(piperazin-1-yl)phenoxy)piperidin-1-yl)methanone ditrifluoroacetic acid]",> 84,> 100
"CC(C)(C)C1CCC(c2cc(C(=O)N3CCC(Oc4cc(Cl)cc(N5CCNCC5)c4)CC3)ccc2O[C@H]2CCNC2)CC1 (stereo in doubt) [Compound 30, cis- and trans-(S)-(3-(4-(tert-butyl)cyclohexyl)-4-(pyrrolidin-3-yloxy)phenyl)(4-(3-chloro-5-(piperazin-1-yl)phenoxy)piperidin-1-yl)methanone dihydrochloride]",≤ 5,≤ 5
"CC(C)(C)C1CCN(c2cc(C(=O)N3CCC(Oc4cc(F)cc(N5CCNCC5)c4)CC3)ccc2O[C@H]2CCNC2)CC1 [Compound 27, (S)-(3-(4-(tert-butyl)piperidin-1-yl)-4-(pyrrolidin-3-yloxy)phenyl)(4-(3-fluoro-5-(piperazin-1-yl)phenoxy)piperidin-1-yl)methanone dihydrochloride]",≤ 30,≤ 30
"O=C(c1ccc(O[C@H]2CCNC2)c(-c2ccc3ccsc3c2)c1)N1CCC(Oc2cc(F)cc(N3CCNCC3)c2)CC1 [Compound 11, (S)-(3-(benzo[b]thiophen-6-yl)-4-(pyrrolidin-3-yloxy)phenyl)(4-(3-fluoro-5-(piperazin-1-yl)phenoxy)piperidin-1-yl)methanone dihydrochloride]",≤ 5,≤ 5
"O=C(c1ccc(O[C@H]2CCNC2)c(-c2ccc3cn[nH]c3c2)c1)N1CCC(Oc2cc(F)cc(N3CCNCC3)c2)CC1 [Compound 15, (S)-(3-(1H-indazol-6-yl)-4-(pyrrolidin-3-yloxy)phenyl)(4-(3-fluoro-5-(piperazin-1-yl)phenoxy)piperidin-1-yl)methanone dihydrochloride]",≤ 20,≤ 20
"O=C(c1ccc(O[C@H]2CCNC2)c(-c2ccccc2)c1)N1CCC(Oc2cc(F)cc(N3CCNCC3)c2)CC1 [Compound 8, (S)-(4-(3-fluoro-5-(piperazin-1-yl)phenoxy)piperidin-1-yl)(6-(pyrrolidin-3-yloxy)-[1,1′-biphenyl]-3-yl)methanone dihydrochloride]",≤ 50,≤ 50
"O=C(c1ccc(O[C@H]2CCNC2)c(-c2ccc3[nH]cnc3c2)c1)N1CCC(Oc2cc(F)cc(N3CCNCC3)c2)CC1 [Compound 16, (S)-(3-(1H-benzo[d]imidazol-5-yl)-4-(pyrrolidin-3-yloxy)phenyl)(4-(3-fluoro-5-(piperazin-1-yl)phenoxy)piperidin-1-yl)methanone dihydrochloride]",≤ 50,≤ 50
CC1(O)CCN(c2cc(C(=O)N3CCC(Oc4cc(F)cc(N5CCNCC5)c4)CC3)ccc2O[C@H]2CCNC2)CC1 [Compound 28],≤ 20,≤ 20
"CNC(=O)c1ccc(N2CCNCC2)cc1OC1CCN(C(=O)c2ccc(O[C@H]3CCNC3)c(C3CCC(C(C)(C)C)CC3)c2)CC1 (stereo in doubt) [Compound 42, cis- and trans-(S)-2-((1-(3-(4-(tert-butyl)cyclohexyl)-4-(pyrrolidin-3-yloxy)benzoyl)piperidin-4-yl)oxy)-N-methyl-4-(piperazin-1-yl)benzamide dihydrochloride]",≤ 50,≤ 50
"CC(C)(O)C1CCN(c2cc(C(=O)N3CCC(Oc4cc(F)cc(N5CCNCC5)c4)CC3)ccc2O[C@H]2CCNC2)CC1 [Compound 29, (4-(3-fluoro-5-(piperazin-1-yl)phenoxy)piperidin-1-yl)(3-(4-(2-hydroxypropan-2-yl)piperidin-1-yl)-4-(pyrrolidin-3-yloxy)phenyl)methanone]",≤ 50,≤ 50
"O=C(c1ccc(O[C@H]2CCNC2)c(C2CCCCC2)c1)N1CCC(Oc2cc(F)cc(N3CCNCC3)c2)CC1 [Compound 1, (S)-(3-cyclohexyl-4-(pyrrolidin-3-yloxy)phenyl)(4-(3-fluoro-5-(piperazin-1-yl)phenoxy)piperidin-1-yl)methanone dihydrochloride]",≤ 50,≤ 60

# Reference: patent US20240208940A1, “SMALL-MOLECULE INHIBITORS FOR BETA-CATENIN/BCELL LYMPHOMA 9 PROTEIN-PROTEIN INTERACTION” (H. LEE MOFFITT CANCER CENTER AND RESEARCH INSTITUTE, INC., priority 2021, published 2024)
